Measured values taken from US6409508B1, “Use of ozone for the treatment of dental caries” (Natural White, priority 1998, dated 2002).

Key:
Type in all cases: cell-based
[1] = system: micro-organisms in primary root carious lesions (PRCL); experiment: Ozone effect on microflora from primary root caries ex-vivo; details: for Mean ± SE of total cfu (Log10): after 10 seconds of ozone treatment
Description: Primary root carious lesions (PRCL) are a major clinical problem. The aim of this study was to establish if ozone could achieve effective microbial killing in PRCL. An ozone producing generator (Purezone Ltd., Ipswich, U.K.) was used in this ex-vivo study assessing the use of ozone on PRCL. In this study, soft PRCL requiring restoration were used as these are the most severe type of lesion found in humans. 20 freshly extracted teeth with PRCL requiring restoration were used. After plaque removal using a hand held standard fine nylon fibre sterile toothbrush with sterile water as a lubricant to cleanse the surface, each tooth was then isolated using sterile cotton wool rolls and dried using a dry sterile cotton wool roll. […] Each sample was weighed and immediately placed in 1 ml of Fastidious Anaerobe Broth (FAB). To each 1 ml of FAB containing a biopsy of carious or ozone treated carious dentine, sterile glass beads were added. They were vortexed for 30 seconds to facilitate the extraction of any micro-organisms from the carious dentine and disperse any aggregates. After decimal dilution with FAB, […] of these was spread on Fastidious Anaerobe Agar (LabM. Bury, Lancs., U.K.) supplemented with 5% (V/V) horse blood in an anaerobic chamber at 37° C. for four days. The mean±SE number of each colony type was counted and calculated.
The procedure of Example 2 was repeated except that ozonised water was applied to the lesion for 20 seconds.
The aims of these studies were to evaluate the efficiency of ozone on primary root caries and associated micro-organisms (Streptococcus sobrinus; TH 21, Streptococcus mutans; NCTC 10449). In study 1, 40 soft primary root carious lesions (PRCLs) from freshly extracted teeth were used and randomly divided into two groups to test the exposure to ozone for either 10 or 20 seconds. There was a significant (p<0.001) difference (Mean±SE) between the control samples for. either 10 seconds (log10 5.91±0.15) or 20 seconds (log10 6.18±0.21) and ozone treated samples for either 10 seconds (log10 3.57±0.37) or 20 seconds (log10 3.77±0.42). In study 2, 40 sterile saliva coated glass beads were put into bijoux bottles with 3 mls of Todd Hewitt broth for control and test groups. S. sobrinus and S. mutans were inoculated and incubated anaerobically overnight. Each glass bead was washed with 2 mls of PBS. Immediately, 10 seconds of ozone was applied to the glass beads in the test groups. Subsequently, each glass bead in the test and control groups was placed in 3 mls of Todd Hewitt Broth with six more sterile glass beads and were vortexed for 30 seconds. […] The number of each colony type was counted and calculated. […]

[2] = system: Streptococcus sobrinus; TH 21; experiment: Ozone on S. sobrinus on saliva coated glass beads; details: 10 seconds of ozone applied to glass beads
Description: (§1) The aims of these studies were to evaluate the efficiency of ozone on primary root caries and associated micro-organisms (Streptococcus sobrinus; TH 21, Streptococcus mutans; NCTC 10449). In study 1, 40 soft primary root carious lesions (PRCLs) from freshly extracted teeth were used and randomly divided into two groups to test the exposure to ozone for either 10 or 20 seconds. There was a significant (p<0.001) difference (Mean±SE) between the control samples for. either 10 seconds (log10 5.91±0.15) or 20 seconds (log10 6.18±0.21) and ozone treated samples for either 10 seconds (log10 3.57±0.37) or 20 seconds (log10 3.77±0.42). In study 2, 40 sterile saliva coated glass beads were put into bijoux bottles with 3 mls of Todd Hewitt broth for control and test groups. S. sobrinus and S. mutans were inoculated and incubated anaerobically overnight. Each glass bead was washed with 2 mls of PBS. Immediately, 10 seconds of ozone was applied to the glass beads in the test groups. Subsequently, each glass bead in the test and control groups was placed in 3 mls of Todd Hewitt Broth with six more sterile glass beads and were vortexed for 30 seconds. After decimal dilutions, […] were spread on blood agar plates supplemented with 5% (V/V) horse blood and placed in an anaerobic chamber at 37° C. for two days. The number of each colony type was counted and calculated. […]

[3] = system: Streptococcus mutans; NCTC 10449; experiment: Ozone on S. mutans on saliva coated glass beads; details: 10 seconds of ozone applied to glass beads
Description: as §1

## O=[O+][O-] [Ozone, ozone]
[1]; 10 seconds of ozone treatment
  percentage of micro-organisms killed: more than 99%
[1]; soft PRCL, freshly extracted teeth
  Mean ± SE of total cfu (Log10): 3.57 ± 0.37 Log10
[1]; soft PRCL, freshly extracted teeth, listed as ozone
  Mean ± SE of total cfu (Log10): 3.57±0.37 Log10
[1]; after 20 seconds of ozone (ozonised water) treatment, soft PRCL, freshly extracted teeth
  Mean ± SE of total cfu (log10): 3.77±0.42 log10
[2]
  colony count (log10, Mean±SE): 1.09±0.36 log10
[3]
  colony count (log, Mean±SE): 1.01±0.27 log
